What was measured:
[1] = Two-photon absorption cross section in DMSO, fluorescein as standard; type: physicochemical
Description: In addition, IVP-02 emits redder fluorescence in solid state than that in solution. To testify the mechanism of the red shift in solid state of IVP-02, its crystal has been analyzed in FIGS. 2G and 2H. The molecules of IVP-02 are anti-parallelly stacked and form multimers in the crystalline state. The short intermolecular stacking distances of the multimers are 3.636 Å, 3.455 Å, 3.394 Å, 3.375 Å, 3.466 Å, and 3.465 Å, indicating strong intermolecular interactions inside the multimers. So the red-shift emission in solid state should be attributed to the intermolecular π-π interactions induced by the short contact between the molecules. […] The TPEF spectra of IVP-02 excited at different pulse wavelengths (780-900 nm) in DMSO were measured in FIG. 2F. The highest […] was 287 GM excited at 800 nm. Such high δ value is beneficial for two-photon imaging in live cells and deep tissues.

A549 cells = assay: Cytotoxicity by standard MTT assay; type: cell-based, human; conditions: summary statement
Protocol: FIG. 22 (A) Two-photon microscopy images of live HeLa cells stained with 2 μM IVP-02 for 30 min. λex=800 nm, λem=495-540 nm. Scale bar=20 μm. (B) Viability of A549 cells after incubation with IVP-02, 04, 06, 22, 42, and 62 at different concentrations for 24 h.
The potential long-term cytotoxicity of bioprobes should be carefully considered for imaging in live cells. Then we studied the cytotoxicity of these IVP molecules to live A549 cells by standard MTT assay. […] While the incubation concentration is 10 μM, the cell viability was between 60% and 80%, showing certain cytotoxicity. Nonetheless, all cell imaging experiments in this work were conducted at low concentration 2 μM, which is reasonable and acceptable.

[2] = test system: cancer cells (A549 and HeLa) and normal cells (COS7 and HLF); assay: CLSM imaging of separately stained cancer and normal cells; type: cell-based; conditions: 2 μM, 30 min, same staining and imaging conditions
Protocol: FIG. 4 CLSM images of live cancer cells (A549 and HeLa) and normal cells (COS7 and HLF) stained with 2 μM IVP-02 for 30 min, respectively. λex=488 nm, λem=500-650 nm. Scale bar=20 μm.
(§1) The bioimaging properties of IVP-02 in live cells were investigated by confocal laser scanning microscopy (CLSM). Cancer cells (A549 and HeLa) and normal cells (COS7 and HLF) were stained with IVP-02, respectively. […] So IVP-02 holds the high potential to differentiate cancer and normal cells. To verify this speculation, cancer and normal cells were co-cultured and stained with IVP-02. […] To precisely confirm the selectivity of IVP-02 to cancer cells, cancer cells A549 and normal cells HLF (A549 and HLF are both human lung cells) were seeded on different cover glasses, respectively. Then the two cover glasses were put in the same dish and stained with IVP-02 at the same time.

[3] = test system: cancer cells (A549 and HeLa) co-cultured with normal cells (COS7 and HLF); assay: CLSM imaging of cancer cells co-cultured with normal cells; type: cell-based; conditions: 30 min
Protocol: FIG. 5 CLSM images of live cancer cells (A549 and HeLa) co-cultured with normal cells (COS7 and HLF) (A), and the images of A549 and HLF cells seeded on different cover glasses (Scale bar=20 μm) (B) stained with 2 μM IVP-02 for 30 min (Scale bar=50 μm), respectively. λex=488 nm, λem=500-650 nm.
FIG. 10 CLSM images of live cancer cells (A549) co-cultured with normal cells (COS7) (A), and the images of A549 and HLF cells seeded on different cover glasses Scale bar=20 μm (B) stained with 2 μM IVP-02, 04, 06, 22, 42, and 62 for 30 min Scale bar=50 μm, respectively. (The first column in B is the same as FIG. 3B) λex=488 nm, λem=500-650 nm.
FIG. 11 CLSM images of live cancer cells (HeLa) co-cultured with normal cells (COS7), stained with 2 μM IVP-02, 04, 06, 22, 42, and 62 for 30 min, respectively. λex=488 nm, λem=500-650 nm. Scale bar=20 μm.
FIG. 12 CLSM images of live cancer cells (A549) co-cultured with normal cells (HLF), stained with 2 μM IVP-02, 04, 06, 22, 42, and 62 for 30 min, respectively. λex=488 nm, λem=500-650 nm. Scale bar=20 μm.
as §1
Cancer cells A549 co-cultured with normal cells COS7 were stained with these molecules, respectively. […] Then HeLa cells co-cultured with COS7 cells (FIG. 11), and A549 cells co-cultured with HLF cells (FIG. 12) were also stained with these molecules, the results were similar with that in A549 cells co-cultured with COS7 cells. In addition to co-culturing, A549 cells and HLF cells were also seeded on different cover glasses and stained with these molecules. […] Based on the imaging results above, it can be concluded that the selectivity of these IVP molecules to cancer cells is also based on the length of alkyl chain at pyridinium salt side. Lengthening the alkyl chain at the pyridinium salt side will eliminate the selectivity to cancer cells.

[4] = test system: mitochondria in HeLa and A549 cells; assay: Co-stain with mitochondrial probe MitoTracker Deep Red FM (MTDR); type: cell-based; conditions: 2 μM dye, 0.2 μM MTDR, HeLa and A549
Protocol: FIG. 6 CLSM images of live HeLa and A549 cells stained with 2 μM IVP-02 and 0.2 μM MTDR, respectively. IVP-02: λex=488 nm, λem=500-650 nm; MTDR: λex=640 nm, λem=650-700 nm. Scale bar=20 μm.
In the above pictures, filamentous structures in cytoplasm of cancer cells were observed, which were typical morphology of mitochondria. Then co-stain experiments with commercial mitochondrial probe MitoTracker™ Deep Red FM (MTDR) were carried out (FIG. 6).
It was speculated that the membrane permeability of the probe was a key factor for its selectivity to cancer cells, since the plasma membrane of cancer cells was reported to be more permeable than normal cells. Consequently, IVP-02 was modified by lengthening the alkyl chain at the pyridine salt side and indole side, respectively, to tune the membrane permeability. The synthetic route to these new IVP molecules is depicted in Scheme 1. Their chemical structures were fully characterized by ^1H NMR, ^13C NMR, and ^19F NMR. Then cancer cells A549 were stained with the five new molecules, respectively. […] The co-stain experiments with MTDR also confirmed their location in mitochondria in A549 cells in FIG. 7C. In addition to A549 cells, the same experiments were also carried in HeLa cells (FIGS. 8 and 9).

- Two-photon absorption cross section (δ) ([1]; λex 780 nm): 106 GM
- Two-photon absorption cross section (δ) ([1]; λex 800 nm): 287 GM
- Two-photon absorption cross section (δ) ([1]; λex 820 nm): 173 GM
- Two-photon absorption cross section (δ) ([1]; λex 840 nm): 194 GM
- Two-photon absorption cross section (δ) ([1]; λex 860 nm): 271 GM
- Two-photon absorption cross section (δ) ([1]; λex 880 nm): 227 GM
- Two-photon absorption cross section (δ) ([1]; λex 900 nm): 78 GM
Compound: CC[n+]1ccc(/C=C/c2c[nH]c3ccccc23)cc1 [IVP-02]
- cytotoxicity (A549 cells): low cytotoxicity
- fluorescence intensity in normal cells versus cancer cells [2]: much weaker than that in cancer cells
- staining of co-cultured cancer and normal cells ([3]; A549 and HeLa co-cultured with COS7 and HLF, 2 μM): only cancer cells (A549 and HeLa) were highly illuminated
- staining of co-cultured cancer and normal cells ([3]; A549 co-cultured with COS7, 2 μM): only stain A549 cells
- co-localization coefficient with MTDR [4]: around 0.9
